Results taken from patent publication US9814704B2, “Substituted pyrrolo[2,3-b]pyridines as MLK inhibitors” (The University of Rochester, priority 2008, dated 2017).
Like-named read-outs stand apart in the source and are kept apart here.

Biological target: MLK3 (Homo sapiens (Human), UniProt Q16584)
Assay: Radiometric Filter Plate MLK3 Assay
Assay type: biochemical
Conditions: read-out: MK3 IC50
Description: Radiometric Filter Plate MLK3 Assay
After a twenty minute incubation, the reactions were washed through filter plates and read on a scintillation counter. Results are shown in Table 4 below, in which +++ indicates ≦0.1 μM, ++ indicates >0.1 μM and ≦1 μM, and + indicates >1 μM.

[1] = 200 ng (130 nM) MLK3, 1 μM inactive MKK7b, 2 μM cold ATP (Km), 33P ATP, twenty minute incubation

Sequence of MLK3 (Q16584 whole entry): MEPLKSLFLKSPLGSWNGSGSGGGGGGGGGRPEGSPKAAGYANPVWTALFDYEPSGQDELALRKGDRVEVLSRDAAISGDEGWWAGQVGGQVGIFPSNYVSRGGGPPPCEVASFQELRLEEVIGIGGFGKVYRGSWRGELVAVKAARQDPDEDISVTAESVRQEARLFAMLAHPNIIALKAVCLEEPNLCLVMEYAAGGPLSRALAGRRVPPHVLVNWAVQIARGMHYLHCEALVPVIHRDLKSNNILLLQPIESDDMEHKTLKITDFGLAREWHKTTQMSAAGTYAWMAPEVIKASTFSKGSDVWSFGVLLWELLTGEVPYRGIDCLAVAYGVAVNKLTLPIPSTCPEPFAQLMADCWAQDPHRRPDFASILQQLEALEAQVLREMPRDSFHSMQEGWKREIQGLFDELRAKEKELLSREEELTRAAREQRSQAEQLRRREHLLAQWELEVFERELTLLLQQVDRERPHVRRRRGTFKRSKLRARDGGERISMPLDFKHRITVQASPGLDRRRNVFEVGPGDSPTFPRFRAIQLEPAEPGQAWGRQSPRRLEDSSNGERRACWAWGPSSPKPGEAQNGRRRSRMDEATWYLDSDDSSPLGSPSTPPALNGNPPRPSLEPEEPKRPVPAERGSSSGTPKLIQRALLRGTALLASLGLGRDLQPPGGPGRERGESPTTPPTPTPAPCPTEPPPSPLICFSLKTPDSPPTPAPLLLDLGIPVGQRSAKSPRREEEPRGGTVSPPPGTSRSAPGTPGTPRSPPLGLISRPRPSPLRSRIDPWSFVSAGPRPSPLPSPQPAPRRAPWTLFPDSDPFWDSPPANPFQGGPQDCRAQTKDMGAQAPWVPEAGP

SMILES | IC50 [nM] | IC50 [1] [nM]
O=c1[nH]c2ncc(-c3ccncc3)nc2n1-c1ccc2cn[nH]c2c1 [Example 93, 1-(1H-indazol-6-yl)-6-(pyridin-4-yl)-1H-imidazo[4,5-b]pyrazin-2(3H)-one] | 100 to 1000 | 
COc1cc(OC)c(-c2cnc3[nH]c(=O)n(C4CCCC4)c3n2)c(OC)c1 [Example 94, 1-cyclopentyl-6-(2,4,6-trimethoxyphenyl)-1H-imidazo[4,5-b]pyrazin-2(3H)-one] |  | > 1000
Cc1cc(C)cc(-c2cnc3[nH]c(=O)n(-c4ccc5cn[nH]c5c4)c3n2)c1 [Example 95, 6-(3,5-dimethylphenyl)-1-(1H-indazol-6-yl)-1H-imidazo[4,5-b]pyrazin-2(3H)-one] |  | > 1000
COc1cc(-c2cnc3[nH]c(=O)n(-c4ccc5scnc5c4)c3n2)cc(OC)c1OC [Example 96, 1-(benzo[d]thiazol-5-yl)-6-(3,4,5-trimethoxyphenyl)-1H-imidazo[4,5-b]pyrazin-2(3H)-one] | 100 to 1000 | 
O=c1[nH]c2ncc(-c3ccc(O)cc3)nc2n1-c1ccc2scnc2c1 [Example 97, 1-(benzo[d]thiazol-5-yl)-6-(4-hydroxyphenyl)-1H-imidazo[4,5-b]pyrazin-2(3H)-one] | 100 to 1000 | 
O=c1[nH]c2ncc(-c3ccncc3)nc2n1-c1ccc2scnc2c1 [Example 98, 1-(benzo[d]thiazol-5-yl)-6-(pyridin-4-yl)-1H-imidazo[4,5-b]pyrazin-2(3H)-one] |  | > 1000
Cc1cc(C)cc(-c2cnc3[nH]c(=O)n(-c4ccc5scnc5c4)c3n2)c1 [Example 99, 1-(benzo[d]thiazol-5-yl)-6-(3,5-dimethylphenyl)-1H-imidazo[4,5-b]pyrazin-2(3H)-one] |  | > 1000
O=c1[nH]c2ncc(-c3ccc(N4CCOCC4)cc3)nc2n1-c1ccc2scnc2c1 [Example 100, 1-(benzo[d]thiazol-5-yl)-6-(4-morpholinophenyl)-1H-imidazo[4,5-b]pyrazin-2(3H)-one] |  | > 1000
COc1cc(-c2cnc3[nH]c(=O)n(C4CCc5ccccc54)c3n2)cc(OC)c1OC (stereo not shown) [Example 101, 1-(2,3-dihydro-1H-inden-1-yl)-6-(3,4,5-trimethoxyphenyl)-1H-imidazo[4,5-b]pyrazin-2(3H)-one] |  | > 1000
COc1cc(-c2cnc3[nH]c(=O)n(-c4ccc5[nH]cnc5c4)c3n2)cc(OC)c1OC [Example 102, 1-(1H-benzo[d]imidazol-5-yl)-6-(3,4,5-trimethoxyphenyl)-1H-imidazo[4,5-b]pyrazin-2(3H)-one] |  | < 100

Now from value to compound:

IC50 [nM] | IC50 [1] [nM] | SMILES
100 to 1000 |  | COc1ccc(-c2cnc3[nH]c(=O)n(-c4ccc5[nH]cnc5c4)c3n2)cc1OC [Example 103, 1-(1H-benzo[d]imidazol-5-yl)-6-(3,4-dimethoxyphenyl)-1H-imidazo[4,5-b]pyrazin-2(3H)-one]
100 to 1000 |  | O=c1[nH]c2ncc(-c3ccc(N4CCOCC4)cc3)nc2n1-c1ccc2[nH]cnc2c1 [Example 104, 1-(1H-benzo[d]imidazol-5-yl)-6-(4-morpholinophenyl)-1H-imidazo[4,5-b]pyrazin-2(3H)-one]
100 to 1000 |  | COc1cc(-c2cnc3[nH]c(=O)n(-c4ccccc4)c3n2)cc(OC)c1OC [Example 105, 1-phenyl-6-(3,4,5-trimethoxyphenyl)-1H-imidazo[4,5-b]pyrazin-2(3H)-one]
100 to 1000 |  | COc1ccc(-c2cnc3[nH]c(=O)n(-c4ccccc4)c3n2)cc1OC [Example 106, 6-(3,4-dimethoxyphenyl)-1-phenyl-1H-imidazo[4,5-b]pyrazin-2(3H)-one]
100 to 1000 |  | COc1cc(-c2cnc3[nH]c(=O)n(CC4CC4)c3n2)ccc1OCCN1CCOCC1 [Example 107, 1-(cyclopropylmethyl)-6-(3-methoxy-4-(2-morpholinoethoxy)phenyl)-1H-imidazo[4,5-b]pyrazin-2(3H)-one]
100 to 1000 |  | COc1cc(-c2cnc3[nH]c(=O)n(C4CCCC4)c3n2)ccc1OCCN1CCOCC1 [Example 108, 1-cyclopentyl-6-(3-methoxy-4-(2-morpholinoethoxy)phenyl)-1H-imidazo[4,5-b]pyrazin-2(3H)-one]
